Assay results taken from patent US20200246316A1, “METHODS OF TREATING POST-SURGICAL PAIN WITH A THIAZOLINE ANTI-HYPERALGESIC AGENT” (CERSCI THERAPEUTICS, INC., priority 2019, published 2020).
Where a name gives a salt, the structure may show the parent alone. Read-outs that look alike come from different tables or passages of the source.

What was measured:
[1] = Effect of food on oral bioavailability in rats; type: in vivo, rat
Description: The effect of food on oral bioavailability was determined.

[2] = Rat 28-day GLP repeat dose PO study (toxicokinetics); type: in vivo
Description: The vehicle was 0.5% HPMC. There were 15 rats/sex in the control and high dose groups (5/sex for a 14-day recovery period) while the low and mid doses consisted of 10 rats/sex. Satellite groups of rats/sex/group for toxicokinetics were included.
Rats in Group 1 (Vehicle Control) were bled once at approximately 1 hour post-dose on those days.

[3] = female, rat, in vivo, po, 50 mg/kg, Day 1, F, 50 mg/kg PO
[4] = female, rat, in vivo, po, 500 mg/kg, Day 14, F, 500 mg/kg PO
[5] = female, rat, in vivo, po, 500 mg/kg, Day 28, F, 500 mg/kg PO
[6] = female, rat, in vivo, po, 1000 mg/kg, Day 1, F, 1000 mg/kg PO
[7] = female, rat, in vivo, po, 1000 mg/kg, Day 14, F, 1000 mg/kg PO
[8] = female, rat, in vivo, po, 1000 mg/kg, Day 28, F, 1000 mg/kg PO
[9] = female, rat, in vivo, po, 2000 mg/kg, Day 1, F, 2000 mg/kg PO
[10] = female, rat, in vivo, po, 2000 mg/kg, Day 14, F, 2000 mg/kg PO
[11] = female, rat, in vivo, po, 2000 mg/kg, Day 28, F, 2000 mg/kg PO
[12] = male, rat, in vivo, po, 500 mg/kg, Day 1, M, 500 mg/kg PO

With `CC1(C)SC(Nc2ccccc2O)=N[C@@H]1C(=O)O` [Compound 1, (R)-2-(2-hydroxyphenylamino)-5,5-dimethyl-4,5-dihydrothiazole-4-carboxylic acid mono-hydrochloride] the “peak plasma concentrations in fasted compared to fed rats” value ([1]; 10 mg/kg) was “significantly increased”, the “difference in pharmacokinetic properties fed vs fasted” value ([1]; 100 mg/kg oral) was “No statistically significant differences” and the oral absorption ([1]; fed and fasted rats, 10 and 100 mg/kg) was “well and rapidly absorbed”. For the same compound, the Cmax ([2]; 28-day pivotal rat study, at some doses) was “over 100 μg/mL”, the Tmax ([2]; 28-day study, rat) was at most 1 h and the “overall mean t1/2” value ([2]; all sexes, days, dose levels) was 4.24 h. It also gave a Tmax ([2]; both sexes, rat, in vivo, po) of 0.5 to 2 h, a half-life ([2]; both sexes, rat, in vivo, po) of 3 to 8 h and a Tmax ([2]; both sexes, rat, in vivo, po, Days 1, 14 and 28, 500 to 2000 mg/kg PO, read-out: median tmax) of 1 h. The Tmax ([2]; both sexes, rat, in vivo, po, Days 14 and 28, all dose levels and sexes, read-out: overall median tmax) was 1 h, the “overall mean V/F” value ([2]; both, rat, in vivo) was 12.5 L/kg and the “overall mean CL/F” value ([2]; both, rat, in vivo, po) was 35.2 mL/min/kg. For the same compound, the AUC [2, 3] was 298 µg·h/mL, the AUC(0-inf) [2, 3] was 299 µg·h/mL and the CL/F ([2]; female, rat, in vivo, po, 50 mg/kg, Day 1, F, 50 mg/kg PO, read-out: CL/F (CLz/F) (converted)) was 27.8 mL/min/kg. For the same compound, the Cmax ([2]; female, rat, in vivo, po, 50 mg/kg, Day 1, F, 50 mg/kg PO, read-out: Cmax) was 74.8 µg/mL, the Vd/F ([2]; female, rat, in vivo, po, 50 mg/kg, Day 1, F, 50 mg/kg PO, read-out: V/F (Vz/F)) was 8.1 L/kg and the half-life ([2]; female, rat, in vivo, po, 50 mg/kg, Day 1, F, 50 mg/kg PO, read-out: t1/2 (converted)) was 3.36 h. It also gave an AUC [2, 4] of 223 µg·h/mL, an AUC(0-inf) [2, 4] of 225 µg·h/mL and a CL/F ([2]; female, rat, in vivo, po, 500 mg/kg, Day 14, F, 500 mg/kg PO, read-out: CL/F (CLss/F) (converted)) of 37.5 mL/min/kg. For the same compound, the Cmax ([2]; female, rat, in vivo, po, 500 mg/kg, Day 14, F, 500 mg/kg PO, read-out: Cmax) was 75 µg/mL, the Vd/F ([2]; female, rat, in vivo, po, 500 mg/kg, Day 14, F, 500 mg/kg PO, read-out: V/F (Vss/F)) was 13.6 L/kg and the half-life ([2]; female, rat, in vivo, po, 500 mg/kg, Day 14, F, 500 mg/kg PO, read-out: t1/2 (converted)) was 4.2 h. The Tmax ([2]; female, rat, in vivo, po, 500 mg/kg, Day 14, F, 500 mg/kg PO, read-out: tmax) was 1 h, the AUC [2, 5] was 297 µg·h/mL and the AUC(0-inf) [2, 5] was 303 µg·h/mL. For the same compound, the CL/F ([2]; female, rat, in vivo, po, 500 mg/kg, Day 28, F, 500 mg/kg PO, read-out: CL/F (CLss/F) (converted)) was 28 mL/min/kg, the Cmax ([2]; female, rat, in vivo, po, 500 mg/kg, Day 28, F, 500 mg/kg PO, read-out: Cmax) was 86.4 µg/mL and the Vd/F ([2]; female, rat, in vivo, po, 500 mg/kg, Day 28, F, 500 mg/kg PO, read-out: V/F (Vss/F)) was 11.2 L/kg. For the same compound, the half-life ([2]; female, rat, in vivo, po, 500 mg/kg, Day 28, F, 500 mg/kg PO, read-out: t1/2 (converted)) was 4.62 h, the Tmax ([2]; female, rat, in vivo, po, 500 mg/kg, Day 28, F, 500 mg/kg PO, read-out: tmax) was 0.5 h and the AUC [2, 6] was 788 µg·h/mL. For the same compound, the AUC(0-inf) [2, 6] was 794 µg·h/mL, the CL/F ([2]; female, rat, in vivo, po, 1000 mg/kg, Day 1, F, 1000 mg/kg PO, read-out: CL/F (CLz/F) (converted)) was 21 mL/min/kg and the Cmax ([2]; female, rat, in vivo, po, 1000 mg/kg, Day 1, F, 1000 mg/kg PO, read-out: Cmax) was 108 µg/mL. It also gave a Vd/F ([2]; female, rat, in vivo, po, 1000 mg/kg, Day 1, F, 1000 mg/kg PO, read-out: V/F (Vz/F)) of 6.15 L/kg, a half-life ([2]; female, rat, in vivo, po, 1000 mg/kg, Day 1, F, 1000 mg/kg PO, read-out: t1/2 (converted)) of 3.39 h and an AUC [2, 7] of 430 µg·h/mL. For the same compound, the AUC(0-inf) [2, 7] was 437 µg·h/mL, the CL/F ([2]; female, rat, in vivo, po, 1000 mg/kg, Day 14, F, 1000 mg/kg PO, read-out: CL/F (CLss/F) (converted)) was 38.7 mL/min/kg and the Cmax ([2]; female, rat, in vivo, po, 1000 mg/kg, Day 14, F, 1000 mg/kg PO, read-out: Cmax) was 96.3 µg/mL. It also gave a Vd/F ([2]; female, rat, in vivo, po, 1000 mg/kg, Day 14, F, 1000 mg/kg PO, read-out: V/F (Vss/F)) of 14 L/kg, a half-life ([2]; female, rat, in vivo, po, 1000 mg/kg, Day 14, F, 1000 mg/kg PO, read-out: t1/2 (converted)) of 4.19 h and an AUC [2, 8] of 736 µg·h/mL. It also gave an AUC(0-inf) [2, 8] of 741 µg·h/mL, a CL/F ([2]; female, rat, in vivo, po, 1000 mg/kg, Day 28, F, 1000 mg/kg PO, read-out: CL/F (CLss/F) (converted)) of 22.7 mL/min/kg and a Cmax ([2]; female, rat, in vivo, po, 1000 mg/kg, Day 28, F, 1000 mg/kg PO, read-out: Cmax) of 128 µg/mL. For the same compound, the Vd/F ([2]; female, rat, in vivo, po, 1000 mg/kg, Day 28, F, 1000 mg/kg PO, read-out: V/F (Vss/F)) was 6.26 L/kg, the half-life ([2]; female, rat, in vivo, po, 1000 mg/kg, Day 28, F, 1000 mg/kg PO, read-out: t1/2 (converted)) was 3.2 h and the Tmax ([2]; female, rat, in vivo, po, 1000 mg/kg, Day 28, F, 1000 mg/kg PO, read-out: tmax) was 1 h. It also gave an AUC [2, 9] of 1160 µg·h/mL, an AUC(0-inf) [2, 9] of 1320 µg·h/mL and a CL/F ([2]; female, rat, in vivo, po, 2000 mg/kg, Day 1, F, 2000 mg/kg PO, read-out: CL/F (CLz/F) (converted)) of 25.2 mL/min/kg. For the same compound, the Cmax ([2]; female, rat, in vivo, po, 2000 mg/kg, Day 1, F, 2000 mg/kg PO, read-out: Cmax) was 118 µg/mL, the Vd/F ([2]; female, rat, in vivo, po, 2000 mg/kg, Day 1, F, 2000 mg/kg PO, read-out: V/F (Vz/F)) was 17.6 L/kg and the AUC [2, 10] was 942 µg·h/mL. For the same compound, the AUC(0-inf) [2, 10] was 952 µg·h/mL, the CL/F ([2]; female, rat, in vivo, po, 2000 mg/kg, Day 14, F, 2000 mg/kg PO, read-out: CL/F (CLss/F) (converted)) was 35.3 mL/min/kg and the Cmax ([2]; female, rat, in vivo, po, 2000 mg/kg, Day 14, F, 2000 mg/kg PO, read-out: Cmax) was 127 µg/mL. It also gave a Vd/F ([2]; female, rat, in vivo, po, 2000 mg/kg, Day 14, F, 2000 mg/kg PO, read-out: V/F (Vss/F)) of 10.9 L/kg, a half-life ([2]; female, rat, in vivo, po, 2000 mg/kg, Day 14, F, 2000 mg/kg PO, read-out: t1/2 (converted)) of 3.56 h and a Tmax ([2]; female, rat, in vivo, po, 2000 mg/kg, Day 14, F, 2000 mg/kg PO, read-out: tmax) of 1 h. The AUC [2, 11] was 1300 µg·h/mL, the AUC(0-inf) [2, 11] was 1330 µg·h/mL and the CL/F ([2]; female, rat, in vivo, po, 2000 mg/kg, Day 28, F, 2000 mg/kg PO, read-out: CL/F (CLss/F) (converted)) was 25.5 mL/min/kg. The Cmax ([2]; female, rat, in vivo, po, 2000 mg/kg, Day 28, F, 2000 mg/kg PO, read-out: Cmax) was 139 µg/mL, the Vd/F ([2]; female, rat, in vivo, po, 2000 mg/kg, Day 28, F, 2000 mg/kg PO, read-out: V/F (Vss/F)) was 8.7 L/kg and the half-life ([2]; female, rat, in vivo, po, 2000 mg/kg, Day 28, F, 2000 mg/kg PO, read-out: t1/2 (converted)) was 3.93 h. It also gave a Tmax ([2]; female, rat, in vivo, po, 2000 mg/kg, Day 28, F, 2000 mg/kg PO, read-out: tmax) of 0.5 h, an AUC [2, 12] of 270 µg·h/mL and an AUC(0-inf) [2, 12] of 275 µg·h/mL. It also gave a CL/F ([2]; male, rat, in vivo, po, 500 mg/kg, Day 1, M, 500 mg/kg PO, read-out: CL/F (CLz/F) (converted)) of 30.3 mL/min/kg, a Cmax ([2]; male, rat, in vivo, po, 500 mg/kg, Day 1, M, 500 mg/kg PO, read-out: Cmax) of 55.1 µg/mL and a Vd/F ([2]; male, rat, in vivo, po, 500 mg/kg, Day 1, M, 500 mg/kg PO, read-out: V/F (Vz/F)) of 11 L/kg. For the same compound, the half-life ([2]; male, rat, in vivo, po, 500 mg/kg, Day 1, M, 500 mg/kg PO, read-out: t1/2 (converted)) was 4.18 h.
